According to PMC6834760 (2019):
Values belong to the compound of their own block, whether it stands above or below them.

Test system: Apt(ATP) (DNA, aptamer) TCTCTCACCTGGGGGAGTATTGCGGAGGAAGGT
Assay: FAM fluorescence quenching titration
Settings: 100 mM NaCl, 5 mM MgCl2, 20 mM Tris-HCl, pH 7.4, 66.7 nM aptamer

binding (67.1% quenching at about 0.33 mM ATP): yes
Structure (SMILES): Nc1ncnc2c1ncn2[C@@H]1O[C@H](COP(=O)(O)OP(=O)(O)OP(=O)(O)O)[C@@H](O)[C@H]1O

binding (weaker quenching than ATP, up to about 330 μM): weak
Structure (SMILES): O=c1ccn([C@@H]2O[C@H](COP(=O)(O)OP(=O)(O)OP(=O)(O)O)[C@@H](O)[C@H]2O)c(=O)[nH]1

binding (18.6% quenching at about 330 μM): weak
Structure (SMILES): Nc1nc2c(ncn2[C@@H]2O[C@H](COP(=O)(O)OP(=O)(O)OP(=O)(O)O)[C@@H](O)[C@H]2O)c(=O)[nH]1

binding (35.7% quenching at about 330 μM): weak
Structure (SMILES): Nc1ccn([C@@H]2O[C@H](COP(=O)(O)OP(=O)(O)OP(=O)(O)O)[C@@H](O)[C@H]2O)c(=O)n1
